The text below walks through data of patent US9782406B2, “Kinase inhibitor and method for treatment of related diseases” (PEKING UNIVERSITY SHENZHEN GRADUATE SCHOOL, priority 2011, dated 2017).

One assay has as its target Btk (Homo sapiens, UniProt Q06187). The experiment in a line: Btk in vitro inhibitory activity, acellular TR-FRET kinase assay. Note: 1 µM peptide substrate. It is filed as biochemical. Particulars: read-out: Btk IC50 (Efficacy). How it is done:
Btk kinase activity was determined using a time-resolved fluorescence resonance energy transfer (TR-FRET) methodology. Measurements were performed in a reaction volume of 50 μL using 96-well assay plates. […] The TR-FRET signal was measured on a multimode plate reader with an excitation wavelength (λEx) of 330 nm and detection wavelengths (λEm) of 615 and 665 nm. Activity was determined by the ratio of the fluorescence at 665 nm to that at 615 nm. For each compound, enzyme activity was measured at various concentrations of compound. Negative control reactions were performed in the absence of inhibitor in replicates of six, and two no-enzyme controls were used to determine baseline fluorescence levels. IC50s were obtained using the program Batch Ki (Kuzmic et al. (2000), Anal. Biochem. 286:45-50).

Assay [1] deals with rat basophilic leukemia cells (RBL-2H3). Particulars: mast cells treated with Btk inhibitor; cited from earlier work.

Bounds are passed on as bounds.

Sequence of Btk (Q06187 whole entry): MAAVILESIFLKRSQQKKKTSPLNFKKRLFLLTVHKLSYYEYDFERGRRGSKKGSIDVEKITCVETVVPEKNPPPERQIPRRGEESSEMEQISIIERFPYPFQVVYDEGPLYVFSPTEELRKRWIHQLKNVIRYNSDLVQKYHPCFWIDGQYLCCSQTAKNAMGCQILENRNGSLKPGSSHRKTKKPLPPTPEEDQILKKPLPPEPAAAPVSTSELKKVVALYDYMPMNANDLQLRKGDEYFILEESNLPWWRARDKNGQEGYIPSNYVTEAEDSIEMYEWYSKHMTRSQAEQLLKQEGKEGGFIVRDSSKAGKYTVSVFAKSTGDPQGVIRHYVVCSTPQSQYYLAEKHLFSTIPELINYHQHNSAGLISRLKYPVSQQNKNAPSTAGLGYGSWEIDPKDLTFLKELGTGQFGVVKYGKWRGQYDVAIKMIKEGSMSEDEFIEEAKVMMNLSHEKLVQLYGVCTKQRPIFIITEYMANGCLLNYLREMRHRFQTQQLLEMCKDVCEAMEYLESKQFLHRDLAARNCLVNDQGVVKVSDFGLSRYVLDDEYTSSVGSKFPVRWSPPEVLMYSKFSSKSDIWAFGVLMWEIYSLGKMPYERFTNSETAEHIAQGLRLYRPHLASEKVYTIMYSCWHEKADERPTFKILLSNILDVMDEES

With `C/C=C/C(=O)Nc1cccc(Nc2ncc(NC(=O)c3cc(NC(=O)c4cccc(C(F)(F)F)c4)ccc3C)cn2)c1` [Example 2], the IC50 on Btk is less than 0.1 µM.
Regarding `C=CS(=O)(=O)Nc1cccc(Nc2ncc(NC(=O)c3cc(NC(=O)c4cccc(C(F)(F)F)c4)ccc3C)cn2)c1` [Example 3], the concentration for half-maximal inhibition (IC50) at Btk was less than 0.1 µM.
Turning to `C=CC(=O)NCC(=O)Nc1cccc(Nc2ncc(NC(=O)c3cc(NC(=O)c4cccc(C(F)(F)F)c4)ccc3C)cn2)c1` [Example 4], the IC50 on Btk was less than 0.1 µM.
As for `C=CC(=O)N(C(=O)C=C)c1cccc(Nc2ncc(NC(=O)c3cc(NC(=O)c4cccc(C(F)(F)F)c4)ccc3C)cn2)c1` [Example 5], the half-inhibitory concentration (IC50) at Btk fell in the range of 0.1 to 1 µM.
On the same count and under the same terms, the figure for `C=CC(=O)Nc1cccc(Nc2ncc(NC(=O)c3cc(NC(=O)c4cccc(C(F)(F)F)c4)ccc3Cl)cn2)c1` [Example 6] is less than 0.1 µM; for `C=CC(=O)Nc1cccc(Nc2ncc(NC(=O)c3cc(NC(=O)c4cccc(C(F)(F)F)c4)ccc3F)cn2)c1` [Example 7] it is less than 0.1 µM.
Still for that read-out and setting: the figure for `C=CC(=O)Nc1cccc(Nc2ncc(NC(=O)c3cccc(NC(=O)c4cccc(C(F)(F)F)c4)c3)cn2)c1` [Example 8] is less than 0.1 µM.
On the same count and under the same terms, the figure for `C=CC(=O)Nc1cccc(Nc2ncc(NC(=O)c3ccccc3C)cn2)c1` [Example 9] is less than 0.1 µM.
On to `C=CC(=O)Nc1cccc(Nc2ncc(NC(=O)c3cc(NC(=O)CC)ccc3C)cn2)c1` [Example 10], for which the half-maximal inhibitory concentration (IC50) at Btk is 0.1 to 1 µM.
Still for that read-out and setting: then `C=CC(=O)Nc1cccc(Nc2ncc(NC(=O)c3cc(NC(=O)c4ccc5ccccc5c4)ccc3C)cn2)c1` [Example 11], with less than 0.1 µM; and `C=CC(=O)Nc1cccc(Nc2ncc(NC(=O)c3cc(NC(=O)c4cc(OC)cc(OC)c4)ccc3C)cn2)c1` [Example 12], with less than 0.1 µM; and `C=CC(=O)Nc1cccc(Nc2ncc(NC(=O)c3cc(NC(=O)c4ccc5c(c4)OC(F)(F)O5)ccc3C)cn2)c1` [Example 13], with less than 0.1 µM.
Same read-out and setting: the figure for `C=CC(=O)Nc1cccc(Nc2ncc(NC(=O)c3cc(NC(=O)c4ccc(C(F)(F)F)cc4)ccc3C)cn2)c1` [Example 14] is less than 0.1 µM; for `C=CC(=O)Nc1cccc(Nc2ncc(NC(=O)c3cc(NC(=O)c4cccc(Cl)c4)ccc3C)cn2)c1` [Example 15] it is less than 0.1 µM; for `C=CC(=O)Nc1cccc(Nc2ncc(NC(=O)c3cc(NC(=O)c4cccc(F)c4)ccc3C)cn2)c1` [Example 16] it is less than 0.1 µM.
Still for that read-out and setting: then `C=CC(=O)Nc1cccc(Nc2ncc(NC(=O)c3cc(NC(=O)c4cnoc4C)ccc3C)cn2)c1` [Example 17], with 0.1 to 1 µM; and `C=CC(=O)Nc1cccc(Nc2ncc(NC(=O)c3cc(NC(=O)c4cccc(N(C)C)c4)ccc3C)cn2)c1` [Example 18], with less than 0.1 µM; and `C=CC(=O)Nc1cccc(Nc2ncc(NC(=O)c3cc(NC(=O)C4CC4)ccc3C)cn2)c1` [Example 19], with 0.1 to 1 µM.
As for `Cc1ccc(NC(=O)c2cccc(C(F)(F)F)c2)cc1C(=O)Nc1cnc(Nc2cccc(N)c2)nc1` [Example 20], at Btk, the half-maximal inhibitory concentration (IC50) was less than 0.1 µM.
Still for that read-out and setting: then `Cc1ccc(NC(=O)c2cc(Cl)cc(C(F)(F)F)c2)cc1C(=O)Nc1cnc(Nc2cccc(N)c2)nc1` [Example 21], with less than 0.1 µM; and `CCC(=O)Nc1ccc(C)c(C(=O)Nc2cnc(Nc3cccc(N)c3)nc2)c1` [Example 22], with 1 to 10 µM; and `Cc1ccc(NC(=O)c2ccc3ccccc3c2)cc1C(=O)Nc1cnc(Nc2cccc(N)c2)nc1` [Example 23], with less than 0.1 µM.
Still for that read-out and setting: the figure for `COc1cc(OC)cc(C(=O)Nc2ccc(C)c(C(=O)Nc3cnc(Nc4cccc(N)c4)nc3)c2)c1` [Example 24] is less than 0.1 µM.
In the case of `Cc1ccc(NC(=O)c2ccc3c(c2)OC(F)(F)O3)cc1C(=O)Nc1cnc(Nc2cccc(N)c2)nc1` [Example 25], the half-inhibitory concentration (IC50) at Btk was less than 0.1 µM.
As to `Cc1ccc(NC(=O)c2ccc(C(F)(F)F)cc2)cc1C(=O)Nc1cnc(Nc2cccc(N)c2)nc1` [Example 26], the IC50 on Btk is less than 0.1 µM.
On the same count and under the same terms, the figure for `Cc1ccc(NC(=O)c2cccc(Cl)c2)cc1C(=O)Nc1cnc(Nc2cccc(N)c2)nc1` [Example 27] is less than 0.1 µM; for `Cc1ccc(NC(=O)c2cccc(F)c2)cc1C(=O)Nc1cnc(Nc2cccc(N)c2)nc1` [Example 28] it is 0.1 to 1 µM; for `Cc1ccc(NC(=O)c2cnoc2C)cc1C(=O)Nc1cnc(Nc2cccc(N)c2)nc1` [Example 29] it is 0.1 to 1 µM.
On the same count and under the same terms, then `Cc1ccc(NC(=O)c2cccc(N(C)C)c2)cc1C(=O)Nc1cnc(Nc2cccc(N)c2)nc1` [Example 30], with less than 0.1 µM; and `Cc1ccc(NC(=O)C2CC2)cc1C(=O)Nc1cnc(Nc2cccc(N)c2)nc1` [Example 31], with 1 to 10 µM.
Turning to `Nc1cccc(Nc2ncc(NC(=O)c3cccc(NC(=O)c4cccc(C(F)(F)F)c4)c3)cn2)c1` [Example 32], at Btk, the IC50 lay in the range of 0.1 to 1 µM.
On to `Nc1cccc(Nc2ncc(NC(=O)c3cc(NC(=O)c4cccc(C(F)(F)F)c4)ccc3Cl)cn2)c1` [Example 33], for which the IC50 at Btk is less than 0.1 µM.
Still for that read-out and setting: then `Nc1cccc(Nc2ncc(NC(=O)c3cc(NC(=O)c4cccc(C(F)(F)F)c4)ccc3F)cn2)c1` [Example 34], with less than 0.1 µM; and `Cc1ccc(NC(=O)Nc2cccc(C(F)(F)F)c2)cc1C(=O)Nc1cnc(Nc2cccc(N)c2)nc1` [Example 35], with less than 0.1 µM; and `Cc1ccc(NC(=O)/C=C/c2ccccc2)cc1C(=O)Nc1cnc(Nc2cccc(N)c2)nc1` [Example 37], with 0.1 to 1 µM.
On to `C/C(O)=C(\C#N)C(=O)Nc1cc(Br)ccc1Br` [LFM-A13], for which, in assay [1], the “release of histamine reduced” value is 20-25%.
